IC50, Selectivity ratio and GI50 data for four compounds are collected here from patent publication US20190263796A1, “LIM KINASE INHIBITORS, PHARMACEUTICAL COMPOSITION AND METHOD OF USE IN LIMK-MEDIATED DISEASES” (CELLIPSE, priority 2016, published 2019).

Format in all cases: cell-based
Assay [1] concerns Phospho-Ser3-Cofilin/Total Cofilin. Put plainly: Western blot cofilin phosphorylation, MOLM-13. The settings on record: Homo sapiens, MOLM-13 cells. The procedure:
(§1) MOLM-13 cell line was originally purchased from the Leibniz-Institut Deutsche Sammlung von Mikroorganismen und Zellkulturen GmbH (DSMZ). MOLM-13 cells are cultured in RPMI 1640 20% (v/v) FBS supplemented with 100 U/mL^−1 penicillin, 0.1 mg·mL^−1 streptomycin (PAN Biotech P06-07100). Cells were maintained at 37° C. with 5% CO2.
(§2) In a 6 wells plate (Falcon 353046), 2·10^6 cells in 1.5 mL medium are treated for 2 h with compounds. Cells are then collected and cell lysis is performed at 4° C. using RIPA buffer supplemented with protease inhibitors cocktail (Sigma-Aldrich P8340) and phosphatase inhibitors cocktail (Sigma-Aldrich P5726). Following centrifugation 30 min 15000 g 4° C., supernatants are mixed with Laemmli buffer and denaturation is performed by heating 5 min 95° C. 10 μL of samples are subjected to electrophoresis on 15% SDS-PAGE. After electro-transfer (Mini Transblot, Bio-Rad), the PVDF membrane (Merck-Millipore Immobilon P IPVH00010) is blocked with Tris Buffered Saline, pH 7.4 (TBS) with 0.1% Tween 20 and 5% BSA for 1 h RT under agitation. The membrane was rinsed 3 times 10 min at room temperature under agitation with TBS, 0.1% Tween-20 (TBST) and then 1 h at room temperature with anti-phospho-Ser3-cofilin (Cell Signaling Technology #3313, 1/1000 dilution) antibody or anti-cofilin (Cell Signaling Technology #3312, 1/1000 dilution) diluted in TBS, 0.1% Tween 20 and 1% BSA. The membrane is then rinsed 3 times 10 min at room temperature under agitation in TBST and incubated for 1 h with anti-rabbit secondary antibody, horseradish peroxidase conjugated (Jackson Immunoresearch #711-036-152) under agitation at room temperature. After three washes 10 min at room temperature in TBST, the detection of total or phosphorylated cofilin was performed using chemiluminescence kit ECL™ Plus (GE Healthcare RPN2132). For each concentration of compound, ratio between phosphorylated cofilin and total cofilin is determined. This ratio is then expressed as percentage of control ratio (i.e., ratio from DMSO treated cells). IC50 Phospho-Ser3-Cofilin/Total Cofilin is then determined.
Background: Immunoblotting shows a protein as a band on a membrane.

For assay [2] the test system is unchanged. Put plainly: Western blot cofilin phosphorylation, HL-60. The settings on record: HL-60 cells, 2 h. The procedure:
(§3) HL-60 cell line was originally purchased from the Leibniz-Institut Deutsche Sammlung von Mikroorganismen und Zellkulturen GmbH (DSMZ). HL-60 cells are cultured in RPMI 1640 10% (v/v) FBS supplemented with 100 U/mL^−1 penicillin, 0.1 mg·mL^−1 streptomycin (PAN Biotech P06-07100). Cells were maintained at 37° C. with 5% CO2.
as §2

For assay [3], the system named is P-MEK/Total MEK. Put plainly: Western blot MEK1 phosphorylation, HL-60. The settings on record: HL-60 cells; for IC50: 2 h, read-out: IC50 P-MEK/Total MEK; for Selectivity ratio: IC50 P-MEK/Total MEK divided by IC50 Phospho-Ser3-Cofilin/Total Cofilin. The procedure:
as §3
(§4) In a 6 wells plate (Falcon 353046), 2·10^6 cells in 1.5 mL medium are treated for 2 h with compounds. Cells are then collected and cell lysis is performed at 4° C. using RIPA buffer supplemented with protease inhibitors cocktail (Sigma-Aldrich P8340) and phosphatase inhibitors cocktail (Sigma-Aldrich P5726). Following centrifugation 30 min 15000 g 4° C., supernatants are mixed with Laemmli buffer and denaturation is performed by heating 5 min 95° C. 10 μL of samples are subjected to electrophoresis on 15% SDS-PAGE. After electro-transfer (Mini Transblot, Bio-Rad), the PVDF membrane (Merck-Millipore Immobilon P IPVH00010) is blocked with Tris Buffered Saline, pH 7.4 (TBS) with 0.1% Tween 20 and 5% BSA for 1 h at room temperature under agitation. The membrane was rinsed 3 times 10 min at room temperature under agitation with TBS, 0.1% Tween-20 (TBST) and then 1 h at room temperature with anti-phospho-Ser218/222-MEK1 (Merck-Millipore 07-461, 1/1000 dilution) antibody or anti-MEK1 (Merck-Millipore 07-641, 1/1000 dilution) diluted in TBS, 0.1% Tween 20 and 1% BSA. The membrane is then rinsed 3 times 10 min RT under agitation in TBST and incubated for 1 h with anti-rabbit secondary antibody, horseradish peroxidase conjugated (Jackson Immunoresearch #711-036-152) under agitation at room temperature. After three washes 10 min at room temperature in TBST, the detection of total or phosphorylated cofilin was performed using chemiluminescence kit ECL™ Plus (GE Healthcare RPN2132). For each concentration of compound, ratio between phosphorylated cofilin and total cofilin is determined. This ratio is then expressed as percentage of control ratio (i.e., ratio from DMSO treated cells). IC50 P-MEK/Total MEK is then determined.
(§5) Selectivity ratios are calculated by dividing the IC50 P-MEK/Total MEK value (μM) by the IC50 Phospho-Ser3-Cofilin/Total Cofilin value (μM).

For assay [4], the system named is P-MEK/Total MEK. The assay is described as follows: Western blot MEK1 phosphorylation, MOLM-13. The settings on record: for IC50: Homo sapiens, read-out: IC50 P-MEK/Total MEK. As to the method:
as §1, §4, §5

For assay [5], the system named is P-MEK/Total MEK. Put plainly: Western blot MEK1 phosphorylation, THP-1. The settings on record: for IC50: Homo sapiens, read-out: IC50 P-MEK/Total MEK. The procedure: Cells were maintained at 37° C. with 5% CO2.
as §4, §5

The test system of assay [6] is Phospho-Ser3-Cofilin/Total Cofilin. The assay is described as follows: Western blot cofilin phosphorylation, THP-1. The settings on record: Homo sapiens; THP-1 cells; 2 h. The procedure:
THP-1 cell line was originally purchased from the Leibniz-Institut Deutsche Sammlung von Mikroorganismen und Zellkulturen GmbH (DSMZ). THP-1 cells are cultured in RPMI 1640 20% (v/v) FBS supplemented with 100 U/mL^−1 penicillin, 0.1 mg·mL^−1 streptomycin (PAN Biotech P06-07100). Cells were maintained at 37° C. with 5% CO2.
In a 6 wells plate (Falcon 353046), 2·10^6 cells in 1.5 mL medium are treated for 2 h with compounds. Cells are then collected and cell lysis is performed at 4° C. using RIPA buffer supplemented with protease inhibitors cocktail (Sigma-Aldrich P8340) and phosphatase inhibitors cocktail (Sigma-Aldrich P5726). Following centrifugation 30 min 15000 g 4° C., supernatants are mixed with Laemmli buffer and denaturation is performed by heating 5 min 95° C. 10 μL of samples are subjected to electrophoresis on 15% SDS-PAGE. After electro-transfer (Mini Transblot, Bio-Rad), the PVDF membrane (Merck-Millipore Immobilon P IPVH00010) is blocked with Tris Buffered Saline, pH 7.4 (TBS) with 0.1% Tween 20 and 5% BSA for 1 h RT under agitation. […] For each concentration of compound, ratio between phosphorylated cofilin and total cofilin is determined. This ratio is then expressed as percentage of control ratio (i.e., ratio from DMSO treated cells). IC50 Phospho-Ser3-Cofilin/Total Cofilin is then determined.

For the next assay, the system named is MV4-11 cells. The assay is described as follows: Cell proliferation assay (PrestoBlue), MV4-11. The settings on record: Homo sapiens, 48 h. As to the method:
MV4-11 cell line was originally purchased from the American Type Culture Collection (ATCC). MV4-11 cells are cultured in RPMI 1640 10% (v/v) FBS supplemented with 100 U/mL^−1 penicillin, 0.1 mg·mL^−1 streptomycin (PAN Biotech P06-07100) and 2 mM Glutamine (Sigma-Aldrich 59202C). Cells were maintained at 37° C. with 5% CO2.
The assay was performed in 96 wells microplate (Greiner Bioone 655090). MV4-11 cells are seeded at 5,000 cells per well. Compounds (or equivalent amounts of DMSO) are then added and cells are allowed to grow for 48 h. Proliferation is evaluated using PrestoBlue assay according to manufacturer recommendations. Results are expressed as GI50 (Growth Inhibition 50%: concentration at which proliferation is inhibited of 50%) in comparison to DMSO controls.

With `O=S(=O)(Nc1cccc(-c2nc(CCO)sc2-c2ccnc(Nc3ccccc3)n2)c1F)c1c(F)cccc1F` [8 (Na)], the IC50 in assay [1] (2 h) was below 0.2 µM; in assay [2], below 0.2 µM; in the assay with P-MEK/Total MEK [3], above 1 µM; with P-MEK/Total MEK [4] (MOLM-13 cells, 2 h), above 1 µM. The Selectivity ratio is recorded as 42 in the assay on P-MEK/Total MEK [3] and 42 in the assay on P-MEK/Total MEK [4] (MOLM-13 cells, IC50 P-MEK/Total MEK divided by IC50 Phospho-Ser3-Cofilin/Total Cofilin).
In the case of `O=S(=O)(Nc1cccc(-c2nc(CCO)sc2-c2ccnc(Nc3ccccc3)n2)c1F)c1c(F)cccc1F` [Compound 8, 2,6-difluoro-N-(2-fluoro-3-(2-(2-hydroxyethyl)-5-(2-(phenylamino)pyrimidin-4-yl)thiazol-4-yl)phenyl)benzenesulfonamide], the IC50 in assay [2] (Homo sapiens) is below 0.2 µM; in the assay with P-MEK/Total MEK [3] (Homo sapiens), above 1 µM; with P-MEK/Total MEK [5] (THP-1 cells, 2 h), 0.2 to 1 µM; in assay [6] it was below 0.2 µM. For the same compound, the Selectivity ratio came to 31 in the assay on P-MEK/Total MEK [3] and 80 in the assay on P-MEK/Total MEK [5] (THP-1 cells, IC50 P-MEK/Total MEK divided by IC50 Phospho-Ser3-Cofilin/Total Cofilin). In addition, the GI50 (commonly the concentration at which growth is held to half of that of the control) in the assay on MV4-11 cells was at most 1 µM.
In the case of `CNC(=O)Cc1nc(-c2cccc(NS(=O)(=O)c3c(F)cccc3F)c2F)c(-c2ccnc(Nc3ccccc3)n2)s1` [Compound 9, 2-(4-(3-(2,6-difluorophenylsulfonamido)-2-fluorophenyl)-5-(2-(phenylamino)pyrimidin-4-yl)thiazol-2-yl)-N-methylacetamide], the IC50 in assay [1] (MOLM-13, 2 h) was below 0.2 µM; in the assay with P-MEK/Total MEK [5] (THP-1, 2 h), 0.2 to 1 µM; in the assay on P-MEK/Total MEK [4] (MOLM-13, 2 h), above 1 µM; in assay [6], below 0.2 µM. Besides, in the assay with MV4-11 cells, the GI50 was 1 to 5 µM.
In the assay with MV4-11 cells, `CC(C)(C)c1nc(-c2cccc(NS(=O)(=O)c3c(F)cccc3F)c2F)c(-c2ccnc(Nc3ccccc3)n2)s1` [Compound 1, N-(3-(2-(tert-butyl)-5-(2-(phenylamino)pyrimidin-4-yl)thiazol-4-yl)-2-fluorophenyl)-2,6-difluorobenzenesulfonamide] yielded a GI50 of at most 1 µM.
